Test results: ChEMBL document CHEMBL1201861, “Genomics of Drug Sensitity in Cancer screening data, Wellcome Trust Sanger Institute”

Columns and labels:
Assay in all cases: cells
[1] = system: NCI-H69; format: functional, cell-based; conditions: Homo sapiens;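 also: growth inhibition of the cell line, read out with a cell viability assay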
Description: SANGER: Inhibition of human NCI-H69 cell growth in a cell viability assay.

[2] = system: RPMI-7951; format: functional, cell-based, Homo sapiens; conditions: Homo sapiens, RPMI-7951
Description: SANGER: Inhibition of human RPMI-7951 cell growth in a cell viability assay.

[3] = system: FaDu; format: functional, cell-based, Homo sapiens; conditions: Homo sapiens, FaDu;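 also: cell viability readout of growth inhibition in FaDu cells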
Description: SANGER: Inhibition of human FADU cell growth in a cell viability assay.

[4] = system: P12-Ichikawa; format: functional, cell-based; conditions: Homo sapiens
[5] = system: AGS; format: functional, cell-based, Homo sapiens; conditions: Homo sapiens, AGS;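 also: growth inhibition of AGS cells, determined with a cell viability assay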
Description: SANGER: Inhibition of human AGS cell growth in a cell viability assay.

[6] = system: SK-UT-1; format: functional, cell-based, Homo sapiens; conditions: Homo sapiens, SK-UT-1;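 also: growth inhibition of SK-UT-1 cells, measured by a cell viability assay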
Description: SANGER: Inhibition of human SK-UT-1 cell growth in a cell viability assay.

[7] = system: HCC2218; format: functional, cell-based; conditions: Homo sapiens;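 also: cell viability assay read-out, with IC50 given as the concentration that inhibits growth of the cell line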
Description: SANGER: Inhibition of human HCC2218 cell growth in a cell viability assay.

[8] = system: SW982; format: functional, cell-based; conditions: Homo sapiens;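 also: growth inhibition of SW982 cells, read out with a cell viability assay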
Description: SANGER: Inhibition of human SW982 cell growth in a cell viability assay.

[9] = system: CAPAN-1; format: functional, cell-based, Homo sapiens; conditions: Homo sapiens, CAPAN-1;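 also: growth suppression of CAPAN-1 cells, read out by a cell viability assay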
Description: SANGER: Inhibition of human CAPAN-1 cell growth in a cell viability assay.

[10] = system: MDA-MB-415; format: functional, cell-based; conditions: Homo sapiens
[11] = system: JVM-2; format: functional, cell-based; conditions: Homo sapiens;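 also: growth inhibition of JVM-2 cells determined by a cell viability assay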
Description: SANGER: Inhibition of human JVM-2 cell growth in a cell viability assay.

[12] = system: HCC1187; format: functional, cell-based, Homo sapiens; conditions: Homo sapiens, HCC1187;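 also: growth inhibition of HCC1187 cells, read out with a cell viability assay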
Description: SANGER: Inhibition of human HCC1187 cell growth in a cell viability assay.

[13] = system: EW-24; format: functional, cell-based; conditions: Homo sapiens;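 also: human EW-24 cancer cell line, growth inhibition read out via a cell viability assay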
Description: SANGER: Inhibition of human EW-24 cell growth in a cell viability assay.

[14] = system: UACC-893; format: functional, cell-based, Homo sapiens; conditions: Homo sapiens, UACC-893
Description: SANGER: Inhibition of human UACC-893 cell growth in a cell viability assay.

[15] = system: Becker; format: functional, cell-based, Homo sapiens; conditions: Homo sapiens, Becker;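 also: growth inhibition of Becker cells, read out with a cell viability assay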
Description: SANGER: Inhibition of human Becker cell growth in a cell viability assay.

[16] = system: SK-N-AS; format: functional, cell-based, Homo sapiens; conditions: Homo sapiens, SK-N-AS;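 also: growth inhibition of human SK-N-AS cells, measured with a cell viability assay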
Description: SANGER: Inhibition of human SK-N-AS cell growth in a cell viability assay.

[17] = system: RPMI-2650; format: functional, cell-based, Homo sapiens; conditions: Homo sapiens, RPMI-2650
Description: SANGER: Inhibition of human RPMI-2650 cell growth in a cell viability assay.

[18] = system: LB771-HNC; format: functional, cell-based, Homo sapiens; conditions: Homo sapiens, LB771-HNC;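 also: growth inhibition of LB771-HNC human cells, read out with a cell viability assay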
[19] = system: BT-474; format: functional, cell-based, Homo sapiens; conditions: Homo sapiens, BT-474
Description: SANGER: Inhibition of human BT-474 cell growth in a cell viability assay.

[20] = system: RPMI-8226; format: functional, cell-based; conditions: Homo sapiens
Description: SANGER: Inhibition of human RPMI-8226 cell growth in a cell viability assay.

[21] = system: HuCCT-1; format: functional, cell-based, Homo sapiens, HuCCT1; conditions: Homo sapiens, HuCCT-1;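 also: growth inhibition of HuCCT-1 cells, read out by a cell viability assay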
Description: SANGER: Inhibition of human HuCCT1 cell growth in a cell viability assay.

[22] = system: SF-539; format: functional, cell-based, Homo sapiens; conditions: Homo sapiens, SF-539;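 also: Read-out is a cell viability assay, with IC50 reflecting inhibition of cell growth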
Description: SANGER: Inhibition of human SF539 cell growth in a cell viability assay.

[23] = system: A101D; format: functional, cell-based, Homo sapiens; conditions: Homo sapiens, A101D;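 also: growth inhibition of the cell line, measured with a viability assay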
Description: SANGER: Inhibition of human A101D cell growth in a cell viability assay.

[24] = system: T84; format: functional, cell-based, Homo sapiens; conditions: Homo sapiens, T84;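 also: growth inhibition measured with a cell viability readout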
Description: SANGER: Inhibition of human T84 cell growth in a cell viability assay.

[25] = system: SK-N-FI; format: functional, cell-based, Homo sapiens; conditions: Homo sapiens, SK-N-FI;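 also: cell viability assay measuring growth inhibition of human SK-N-FI cells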
Description: SANGER: Inhibition of human SK-N-FI cell growth in a cell viability assay.

[26] = system: CAL-27; format: functional, cell-based, Homo sapiens; conditions: Homo sapiens, CAL-27;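 also: Viability-based readout, IC50 reflecting inhibition of CAL-27 cell growth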
Description: SANGER: Inhibition of human CAL-27 cell growth in a cell viability assay.

[27] = system: LK-2; format: functional, cell-based, Homo sapiens; conditions: Homo sapiens, LK-2;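 also: growth inhibition of LK-2 cells, read out with a viability assay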
Description: SANGER: Inhibition of human LK-2 cell growth in a cell viability assay.

[28] = system: DMS-79; format: functional, cell-based; conditions: Homo sapiens;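 also: growth inhibition measured with a cell viability assay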
Description: SANGER: Inhibition of human DMS-79 cell growth in a cell viability assay.

[29] = system: RO82-W-1; format: functional, cell-based, Homo sapiens; conditions: Homo sapiens, RO82-W-1;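 also: growth inhibition of human RO82-W-1 cells, measured with a cell viability assay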
Description: SANGER: Inhibition of human RO82-W-1 cell growth in a cell viability assay.

[30] = system: CAMA-1; format: functional, cell-based, Homo sapiens; conditions: Homo sapiens, CAMA-1;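 also: growth inhibition of CAMA-1 cells, read out with a cell viability assay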
Description: SANGER: Inhibition of human CAMA-1 cell growth in a cell viability assay.

[31] = system: NCI-H720; format: functional, cell-based; conditions: Homo sapiens;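 also: growth inhibition of human NCI-H720 cells determined by a cell viability assay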
Description: SANGER: Inhibition of human NCI-H720 cell growth in a cell viability assay.

[32] = system: MKN-28; format: functional, cell-based, Homo sapiens; conditions: Homo sapiens, MKN-28;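 also: cell viability assay read-out, IC50 reflects suppression of growth of human MKN-28 cells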
[33] = system: HCE-4; format: functional, cell-based, Homo sapiens; conditions: Homo sapiens, HCE-4;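 also: cell viability assay measuring inhibition of growth in the human HCE-4 cell line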
Description: SANGER: Inhibition of human HCE-4 cell growth in a cell viability assay.

[34] = system: LS-123; format: functional, cell-based, Homo sapiens; conditions: Homo sapiens, LS-123
[35] = system: NY; format: functional, cell-based, Homo sapiens; conditions: Homo sapiens, NY
Description: SANGER: Inhibition of human NY cell growth in a cell viability assay.

[36] = system: EW-11; format: functional, cell-based, Homo sapiens; conditions: Homo sapiens, EW-11;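 also: growth inhibition of human EW-11 cells, measured with a cell viability assay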
Description: SANGER: Inhibition of human EW-11 cell growth in a cell viability assay.

[37] = system: NCI-H2342; format: functional, cell-based; conditions: Homo sapiens;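 also: growth inhibition of the cancer cell line, determined with a cell viability assay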
Description: SANGER: Inhibition of human NCI-H2342 cell growth in a cell viability assay.

[38] = system: NCI-H2347; format: functional, cell-based, Homo sapiens; conditions: Homo sapiens, NCI-H2347;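 also: growth inhibition of the cell line, read out with a cell viability assay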
Description: SANGER: Inhibition of human NCI-H2347 cell growth in a cell viability assay.

[39] = system: SCC-4; format: functional, cell-based, Homo sapiens; conditions: Homo sapiens, SCC-4;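 also: growth inhibition of human SCC-4 cells, read out as cell viability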
Description: SANGER: Inhibition of human SCC-4 cell growth in a cell viability assay.

[40] = system: M14; format: functional, cell-based, Homo sapiens; conditions: Homo sapiens, M14;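 also: growth inhibition of M14 cells, read out with a cell viability assay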
Description: SANGER: Inhibition of human M14 cell growth in a cell viability assay.

[41] = system: HN; format: functional, cell-based, Homo sapiens; conditions: Homo sapiens, HN
Description: SANGER: Inhibition of human HN cell growth in a cell viability assay.

[42] = system: ABC-1; format: functional, cell-based, Homo sapiens; conditions: Homo sapiens, ABC-1;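 also: growth inhibition of human ABC-1 cells, read out by a cell viability assay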
Description: SANGER: Inhibition of human ABC-1 cell growth in a cell viability assay.

[43] = system: AU565; format: functional, cell-based, Homo sapiens; conditions: Homo sapiens, AU565;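 also: cell viability assay measuring growth inhibition of human AU565 cells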
Description: SANGER: Inhibition of human AU565 cell growth in a cell viability assay.

[44] = system: Panc1005; format: functional, cell-based, Homo sapiens; conditions: Homo sapiens, Panc1005;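 also: growth inhibition of human PANC-10-05 cells, measured by a cell viability assay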
Description: SANGER: Inhibition of human PANC-10-05 cell growth in a cell viability assay.

[45] = system: CAS-1; format: functional, cell-based, Homo sapiens; conditions: Homo sapiens, CAS-1;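 also: growth inhibition of CAS-1 cells, measured with a cell viability assay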
[46] = system: 8305C; format: functional, cell-based, Homo sapiens; conditions: Homo sapiens, 8305C
Description: SANGER: Inhibition of human 8305C cell growth in a cell viability assay.

[47] = system: EW-1; format: functional, cell-based, Homo sapiens; conditions: Homo sapiens, EW-1;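 also: growth inhibition of the human EW-1 cell line, read out by a cell viability assay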
Description: SANGER: Inhibition of human EW-1 cell growth in a cell viability assay.

[48] = system: U-266; format: functional, cell-based; conditions: Homo sapiens
Description: SANGER: Inhibition of human U-266 cell growth in a cell viability assay.

[49] = system: HOP-62; format: functional, cell-based, Homo sapiens; conditions: Homo sapiens, HOP-62;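 also: cell growth inhibition determined with a viability assay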
Description: SANGER: Inhibition of human HOP-62 cell growth in a cell viability assay.

[50] = system: MSTO-211H; format: functional, cell-based, Homo sapiens; conditions: Homo sapiens, MSTO-211H
Description: SANGER: Inhibition of human MSTO-211H cell growth in a cell viability assay.

[51] = system: ES1; format: functional, cell-based, Homo sapiens; conditions: Homo sapiens, ES1;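 also: growth inhibition of ES1 cells, read out with a cell viability assay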
Description: SANGER: Inhibition of human ES1 cell growth in a cell viability assay.

How did the IC50 [1] turn out when `Cc1ccc(Nc2nccc(N(C)c3ccc4c(C)n(C)nc4c3)n2)cc1S(N)(=O)=O` [PAZOPANIB] was run?
The IC50 was over 8 µM.

What about the IC50 [2] of the same compound?
The IC50 was over 8 µM.

And the IC50 [3]?
The IC50 was over 8 µM.

What about the IC50 [4] of the same compound?
The IC50 was over 8 µM.

And the IC50 [5]?
Its IC50 is over 8 µM.

And the IC50 [6]?
The IC50 was over 8 µM.

And the IC50 [7]?
The IC50 was over 8 µM.

And the IC50 [8]?
The IC50 was over 8 µM.

What about the IC50 [9] of the same compound?
Its IC50 is over 8 µM.

What about the IC50 [10] of the same compound?
Its IC50 is over 8 µM.

And the IC50 [11]?
Its IC50 is over 8 µM.

And the IC50 [12]?
Its IC50 is over 8 µM.

What about the IC50 [13] of the same compound?
The IC50 was over 8 µM.

What about the IC50 [14] of the same compound?
The IC50 was over 8 µM.

What about the IC50 [15] of the same compound?
The IC50 was over 8 µM.

What about the IC50 [16] of the same compound?
Its IC50 is over 8 µM.

What about the IC50 [17] of the same compound?
The IC50 was over 8 µM.

And the IC50 [18]?
Its IC50 is over 8 µM.

What about the IC50 [19] of the same compound?
Its IC50 is over 8 µM.

What about the IC50 [20] of the same compound?
Its IC50 is over 8 µM.

What about the IC50 [21] of the same compound?
Its IC50 is over 8 µM.

And the IC50 [22]?
The IC50 was over 8 µM.

And the IC50 [23]?
Its IC50 is over 8 µM.

What about the IC50 [24] of the same compound?
Its IC50 is over 8 µM.

And the IC50 [25]?
The IC50 was over 8 µM.

What about the IC50 [26] of the same compound?
Its IC50 is over 8 µM.

What about the IC50 [27] of the same compound?
The IC50 was 2.65 µM.

What about the IC50 [28] of the same compound?
Its IC50 is over 8 µM.

And the IC50 [29]?
Its IC50 is over 8 µM.

What about the IC50 [30] of the same compound?
The IC50 was over 8 µM.

And the IC50 [31]?
Its IC50 is over 8 µM.

And the IC50 [32]?
The IC50 was over 8 µM.

What about the IC50 [33] of the same compound?
The IC50 was over 8 µM.

What about the IC50 [34] of the same compound?
Its IC50 is over 8 µM.

What about the IC50 [35] of the same compound?
The IC50 was 1.85 µM.

What about the IC50 [36] of the same compound?
Its IC50 is over 8 µM.

What about the IC50 [37] of the same compound?
Its IC50 is 3.13 µM.

And the IC50 [38]?
The IC50 was over 8 µM.

And the IC50 [39]?
Its IC50 is over 8 µM.

What about the IC50 [40] of the same compound?
Its IC50 is over 8 µM.

And the IC50 [41]?
The IC50 was over 8 µM.

And the IC50 [42]?
The IC50 was over 8 µM.

And the IC50 [43]?
Its IC50 is over 8 µM.

What about the IC50 [44] of the same compound?
Its IC50 is over 8 µM.

And the IC50 [45]?
Its IC50 is 7.76 µM.

And the IC50 [46]?
Its IC50 is over 8 µM.

What about the IC50 [47] of the same compound?
The IC50 was over 8 µM.

What about the IC50 [48] of the same compound?
The IC50 was over 8 µM.

What about the IC50 [49] of the same compound?
Its IC50 is over 8 µM.

And the IC50 [50]?
Its IC50 is over 8 µM.

What about the IC50 [51] of the same compound?
The IC50 was over 8 µM.

For `Cn1cncc1[C@@](N)(c1ccc(Cl)cc1)c1ccc2c(c1)c(-c1cccc(Cl)c1)cc(=O)n2C` [TIPIFARNIB], which IC50 [1] is on record?
The IC50 was over 16 µM.

And the IC50 [2]?
The IC50 was 13.5 µM.

What about the IC50 [3] of the same compound?
The IC50 was 8.38 µM.

And the IC50 [4]?
Its IC50 is 10.4 µM.

What about the IC50 [5] of the same compound?
The IC50 was 4.53 µM.

What about the IC50 [6] of the same compound?
Its IC50 is 4.86 µM.

And the IC50 [7]?
Its IC50 is over 16 µM.

And the IC50 [8]?
The IC50 was over 16 µM.

What about the IC50 [9] of the same compound?
The IC50 was over 16 µM.

What about the IC50 [10] of the same compound?
The IC50 was 14.2 µM.

And the IC50 [11]?
Its IC50 is over 16 µM.

What about the IC50 [12] of the same compound?
Its IC50 is 7.61 µM.

What about the IC50 [13] of the same compound?
The IC50 was over 16 µM.

And the IC50 [14]?
Its IC50 is over 16 µM.

What about the IC50 [15] of the same compound?
Its IC50 is 6.4 µM.

And the IC50 [16]?
The IC50 was over 16 µM.

What about the IC50 [17] of the same compound?
Its IC50 is 8.29 µM.

And the IC50 [18]?
The IC50 was 1.13 µM.

And the IC50 [19]?
The IC50 was over 16 µM.

And the IC50 [20]?
The IC50 was 9.03 µM.

And the IC50 [21]?
The IC50 was 4.31 µM.

What about the IC50 [22] of the same compound?
Its IC50 is over 16 µM.

What about the IC50 [23] of the same compound?
The IC50 was 1.87 µM.

And the IC50 [24]?
The IC50 was 0.546 µM.

What about the IC50 [25] of the same compound?
The IC50 was over 16 µM.

What about the IC50 [26] of the same compound?
Its IC50 is 3.1 µM.

And the IC50 [27]?
The IC50 was 1.06 µM.

What about the IC50 [28] of the same compound?
The IC50 was over 16 µM.

What about the IC50 [29] of the same compound?
The IC50 was over 16 µM.

And the IC50 [30]?
Its IC50 is over 16 µM.

What about the IC50 [31] of the same compound?
Its IC50 is over 16 µM.

What about the IC50 [32] of the same compound?
Its IC50 is 1.44 µM.

And the IC50 [33]?
The IC50 was 3.04 µM.

What about the IC50 [34] of the same compound?
Its IC50 is 2.11 µM.

What about the IC50 [35] of the same compound?
The IC50 was 1.93 µM.

And the IC50 [36]?
The IC50 was over 16 µM.

What about the IC50 [37] of the same compound?
The IC50 was 0.38 µM.

And the IC50 [38]?
The IC50 was over 16 µM.

What about the IC50 [39] of the same compound?
Its IC50 is 1.33 µM.

And the IC50 [40]?
The IC50 was over 16 µM.

And the IC50 [41]?
The IC50 was over 16 µM.

And the IC50 [42]?
The IC50 was 3.21 µM.

And the IC50 [43]?
Its IC50 is 1.79 µM.

And the IC50 [44]?
The IC50 was 5.05 µM.

What about the IC50 [45] of the same compound?
Its IC50 is over 16 µM.

What about the IC50 [46] of the same compound?
The IC50 was 0.976 µM.

What about the IC50 [47] of the same compound?
Its IC50 is 12.3 µM.

What about the IC50 [48] of the same compound?
Its IC50 is over 16 µM.

And the IC50 [49]?
The IC50 was 3.21 µM.

And the IC50 [50]?
The IC50 was over 16 µM.

And the IC50 [51]?
Its IC50 is 1.96 µM.
